# Measurements published in US4081548A, “Antibiotics” (Merck & Co., Inc., priority 1976, dated 1978).
# Tests used:
# [1] = Hydroxylamine-Extinguishable Absorbance; format: physicochemical; details: pure thienamycin; 10 mM. hydroxylamine, pH 7.0, room temperature, at least 30 min., 297 nm
# Method: The proportion of absorbance measured at 297 nm which can be attributed to the antibiotic content in impure samples is determined by the selective extinction of this absorbance (with concommitant inactivation of antibiotic activity) upon reaction with dilute hydroxylamine.
# Samples are prepared in 0.01M potassium phosphate buffer at pH 7.0 to have an initial A297 between 0.05 and 2.0. Freshly prepared, neutral hydroxylamine (NH2 OH.HCl plus NaOH to a final pH of 7) is added to a final concentration of 10 mM., and reaction is allowed to progress at room temperature for at least 30 min. The resulting A297 when substracted from the initial reading (after correction for dilution by added reagent) yields the hydroxylamine-extinguishable absorbance. Solutions of pure thienamycin show a hydroxylamine-extinguishable absorbance of 94.5%.
# inactivation by cysteine = format: physicochemical; details: cysteine 4 μmoles per ml., pH 7.0, 20° C.
# [2] = pKa from pH induced shift in ultraviolet absorption spectrum; format: physicochemical; details: acidic function; 30 mM. phosphate buffer; read-out: pKa1
# Method: Thienamycin is an internally neutralized amphoteric substance, whose acidic function has a pKa1 = 3.08 when measured in 30 mM. phosphate buffer, taking advantage of the pH induced shift in ultraviolet absorption spectrum.
# [3] = test system: Staphylococcus aureus ATCC 6538P; experiment: disc-diffusion assay of antibacterial activity (5 ml plates); format: cell-based; details: one unit = same inhibition as 1 μg. of cephalothin/ml.
# Method: Assays of antibacterial activity are run according to the following disc-diffusion procedure unless otherwise indicated. The assay plates are prepared in the following manner. An overnight growth of the assay organism, Staphylococcus aureus ATCC 6538P, in nutrient broth plus 0.2% yeast extract is diluted with nutrient broth plus 0.2% yeast extract to a suspension having 55% transmittance at a wavelength of 660 mμ. This suspension is added to Difco nutrient agar supplemented with 2.0 g./l. Difco yeast extract, at 47° C. to 48° C., to make a composition containing 33.2 ml. of the suspension per liter of agar. Five ml. of this suspension is poured into petri dishes of 85 mm. diameter, and these plates are chilled and held at 4° C. until used (5 day maximum).
# Samples of the antibiotic to be assayed are diluted to an appropriate concentration in phosphate buffer at pH 7. Filter-paper discs, 0.5-inch in diameter, are dipped into the test solution and placed on the surface of the assay plate; two discs for each sample are normally placed on one plate opposite to one another. The plates are incubated overnight at 37° C. and the zone of inhibition is measured as mm. diameter. The zone of inhibition measured in mm. determines relative potencies or, when compared with a purified reference standard such as cephalothin, the potency of antibiotic in units/ml. The unit of activity reported in Examples 4 through 7 is based on cephalothin standard solutions of 8, 4, 2 and 1 μg./ml. One unit is defined as the amount which calculates to produce the same inhibition as 1 μg. of cephalothin/ml. that zone of inhibition being between 16 and 21 mm. diameter.
# [4] = test system: Pseudomonas aeruginosa 3210; experiment: in vivo efficacy in infected mice, Table 3; details: 168 h, No. LD50 7, day 7 survival
# Method: (§1) In determining the in vivo activity, thienamycin is dissolved in and diluted with 0.15M NaCl, 0.01M sodium phosphate, pH 7.0, to provide five fourfold concentrations of drug for testing. Female white Swiss mice, averaging about 21 g. in weight, were infected intraperitoneally and subcutaneously with the test organism suspended in broth. The numbers of organisms injected were determined by standard plate-count techniques. At the time of infection, and again 6 hours later, certain of the mice were treated intraperitoneally, subcutaneously and orally with the antibiotic. Five mice were used for each concentration of drug tested. An additional two mice, not infected, were treated with the antibiotic to determine whether the amount of agent injected was toxic. Controls of five mice for each of several dilutions of the infecting culture were included in each test in order to calculate the numbers of organisms that were lethal to 50% of the infected, untreated mice (LD50). This calculation was made using survival data of the seventh day after infection, at which time the amount of drug that should protect 50% of the infected mice (ED50) also was calculated.
# (§2) All animals receiving this challenge and not treated with antibiotic died within 48 hours of the infection. The efficacy of thienamycin having a potency of 30,000 units per mg. is recorded in Table 3: […]
# E. coli 2017 = experiment: in vivo efficacy in infected mice, Table 3; details: Escherichia coli, 2017, ip, 168 h, i.p. x2 (at infection and 6 hours later), No. LD50 9, day 7 survival
# Method: as §1, §2
# solubility = format: physicochemical
# [5] = stability in aqueous solution; format: physicochemical
# β-lactamase = β-lactamase (Enterobacter cloacae, UniProt P05364); experiment: exposure to β-lactamase preparations; format: biochemical; details: β-lactamase from sonic disintegration of a strain of Enterobacter cloacae
# β-lactamase, sequence (P05364 21-381): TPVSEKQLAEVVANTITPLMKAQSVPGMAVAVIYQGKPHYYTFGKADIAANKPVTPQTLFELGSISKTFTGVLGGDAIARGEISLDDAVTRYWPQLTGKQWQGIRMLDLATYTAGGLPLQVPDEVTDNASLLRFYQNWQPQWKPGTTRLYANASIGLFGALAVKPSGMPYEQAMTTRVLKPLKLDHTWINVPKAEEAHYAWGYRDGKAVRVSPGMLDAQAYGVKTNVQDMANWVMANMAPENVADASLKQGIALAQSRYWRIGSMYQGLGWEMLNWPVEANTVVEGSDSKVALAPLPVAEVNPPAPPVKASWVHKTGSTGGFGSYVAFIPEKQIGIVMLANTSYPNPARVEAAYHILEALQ
# Description: Finally, antibiotic activity and absorbance are extinguished on exposure to preparations of β-lactamase obtained by the sonic disintegration of a strain of Enterobacter cloacae.
# [6] = test system: Pseudomonas aeruginosa 3210; experiment: agar dilution method, Table 2; format: cell-based; details: Mueller-Hinton agar, 18 hours, 37° C., strain resistance: P, read-out: Minimum Inhibitory Concentration
# Method: (§3) A further evaluation of substantially pure antibiotic employed the agar dilution method. An inoculum of 2 × 10^4 to 1 × 10^5 organisms is applied as a 0.002 ml. droplet to the surface of Mueller-Hinton agar containing serial, twofold dilutions of antibiotic over the range 0.01 to 73 μg./ml. The results (Table 2) are reported as the minimum inhibitory concentration, in μg./ml., that being the lowest antibiotic concentration at which the growth of the test organism is inhibited over a period of 18 hours at 37° C.
# [7] = test system: Staphylococcus aureus 2314; experiment: agar dilution method, Table 2; format: cell-based; details: Mueller-Hinton agar, 18 hours, 37° C., strain resistance: P, read-out: Minimum Inhibitory Concentration
# Method: as §3
# Escherichia coli 2964 = experiment: agar dilution method, Table 2; format: cell-based; details: Mueller-Hinton agar, 18 hours, 37° C., strain resistance: P, read-out: Minimum Inhibitory Concentration
# Method: as §3
# Serratia 2840 = experiment: agar dilution method, Table 2; format: cell-based; details: Mueller-Hinton agar, 18 hours, 37° C., strain resistance: P, read-out: Minimum Inhibitory Concentration
# Method: as §3
# Proteus mirabilis 2830 = experiment: agar dilution method, Table 2; format: cell-based; details: Mueller-Hinton agar, 18 hours, 37° C., strain resistance: P, read-out: Minimum Inhibitory Concentration
# Method: as §3
# Klebsiella 2921 = experiment: agar dilution method, Table 2; format: cell-based; details: Mueller-Hinton agar, 18 hours, 37° C., strain resistance: P, read-out: Minimum Inhibitory Concentration
# Method: as §3
# [8] = test system: Pseudomonas aeruginosa 2616; experiment: agar dilution method, Table 2; format: cell-based; details: Mueller-Hinton agar, 18 hours, 37° C., strain resistance: P, read-out: Minimum Inhibitory Concentration
# Method: as §3
# Klebsiella 2922 = experiment: agar dilution method, Table 2; format: cell-based; details: Mueller-Hinton agar, 18 hours, 37° C., strain resistance: P, read-out: Minimum Inhibitory Concentration
# Method: as §3
# Escherichia coli 2482 = experiment: agar dilution method, Table 2; format: cell-based; details: Mueller-Hinton agar, 18 hours, 37° C., strain resistance: --, read-out: Minimum Inhibitory Concentration
# Method: as §3
# [9] = test system: Pseudomonas aeruginosa 2824; experiment: agar dilution method, Table 2; format: cell-based; details: Mueller-Hinton agar, 18 hours, 37° C., strain resistance: P, read-out: Minimum Inhibitory Concentration
# Method: as §3
# Escherichia coli 2017 = experiment: agar dilution method, Table 2; format: cell-based; details: Mueller-Hinton agar, 18 hours, 37° C., strain resistance: --, read-out: Minimum Inhibitory Concentration
# Method: as §3
# Staph. aureus 2949 = experiment: in vivo efficacy in infected mice, Table 3; parameters: species or system Staphylococcus aureus; details: 168 h, day 7 survival
# Method: as §1, §2
smiles,measurement,setting,value
"C[C@@H](O)[C@H]1C(=O)N2C(C(=O)O)=C(SCCN)C[C@H]12 [Thienamycin, thienamycin]",hydroxylamine-extinguishable absorbance,[1],94.5%
same,half-life,inactivation by cysteine,2.5 min
same,pKa,[2],3.08
same,potency (estimated / calculated),[3]; estimated or calculated potency,"30,140 units/mg."
same,potency,[3],"30,000 units/mg."
same,ED50,"[4]; Pseudomonas aeruginosa, 3210, ip, i.p. x3 (at infection, 2 and 4 hours)",0.45 mg/kg
same,ED50,"[4]; Pseudomonas aeruginosa, 3210, sc, s.c. x3 (at infection, 2 and 4 hours)",2.05 mg/kg
same,ED50,E. coli 2017,0.375 mg/kg
same,solubility in methanol,solubility; methanol,limited solubility in methanol
same,solubility in water,solubility; water,very soluble in water
same,half-life,"[5]; 1 mg./ml. in 10 mM. potassium phosphate, pH 7.0, 0° C.",53300 min
same,half-life,"[5]; 1 mg./ml. in water (pH 7.0), 0° C.",28800 min
same,half-life,"[5]; 12 mg./ml. in 10 mM. phosphate buffer, 10° C.",4320 min
same,coloration on storage,"[5]; 12 mg./ml. in 10 mM. phosphate buffer, 10° C., by the 48th hour, initially pale yellow",deep amber coloration
same,half-life,"[5]; aqueous solution, pH 8.2, 30° C.",10 min
same,stability in aqueous solution,"[5]; below 1 mg./ml., phosphate buffers, pH between 6 and 7",optimum stability
same,half-life,"[5]; pH 2.0, 30 mM. phosphate buffer, room temperature",6.7 min
same,half-life,"[5]; pH 3.0, 30 mM. phosphate buffer, room temperature",30 min
same,half-life,"[5]; pH 4.0, 30 mM. phosphate buffer, room temperature",346 min
same,half-life,"[5]; pH 8.8 (borate buffer), 30° C.",5.7 min
same,half-life,"[5]; pH 12 (0.01M sodium hydroxide), 30° C.",2.1 min
same,antibiotic activity and absorbance on exposure to β-lactamase,β-lactamase,extinguished
same,MIC,[6],2.4 µg/mL
same,MIC,[7],0.02 µg/mL
same,MIC,Escherichia coli 2964,0.3 µg/mL
same,MIC,Serratia 2840,4.7 µg/mL
same,MIC,Proteus mirabilis 2830,4.7 µg/mL
same,MIC,Klebsiella 2921,0.3 µg/mL
same,MIC,[8],4.7 µg/mL
same,MIC,Klebsiella 2922,0.3 µg/mL
same,MIC,Escherichia coli 2482,0.3 µg/mL
same,MIC,[9],0.6 µg/mL
same,MIC,Escherichia coli 2017,0.15 µg/mL
same,ED50,"Staph. aureus 2949; Staphylococcus aureus, 2949, ip, mice, i.p. x2 (at infection and 6 hours later), No. LD50 7",0.012 mg/kg
same,ED50,"Staph. aureus 2949; Staphylococcus aureus, 2949, po, mice fasted 24 hours, p.o. x2 (at infection and 6 hours later), No. LD50 13",0.67 mg/kg
same,ED50,"Staph. aureus 2949; Staphylococcus aureus, 2949, sc, mice, s.c. x2 (at infection and 6 hours later), No. LD50 7",0.08 mg/kg
